Several values for one entry are separate records, joined by “and”; a condition that tells them apart may be missing. Equal values may be shown once.
Legend:
Type in all cases: biochemical
[1] = target: T1, dopamine (DA) reuptake, rat corpora striata (Rattus norvegicus, UniProt P23977); test: Inhibition of dopamine (DA) reuptake, [3H]DA incorporation into synaptosomes; conditions: for DA reuptake Hill coefficient (nH): Hill equation curve fitting; for IC50: [3H]DA 0.2 μCi/mL, 15 min/37° C.
T1 construct: using rat corpora striata as a tissue source; from tissue; host or cells: rat corpora striata synaptosomes
T1 sequence (P23977 whole entry): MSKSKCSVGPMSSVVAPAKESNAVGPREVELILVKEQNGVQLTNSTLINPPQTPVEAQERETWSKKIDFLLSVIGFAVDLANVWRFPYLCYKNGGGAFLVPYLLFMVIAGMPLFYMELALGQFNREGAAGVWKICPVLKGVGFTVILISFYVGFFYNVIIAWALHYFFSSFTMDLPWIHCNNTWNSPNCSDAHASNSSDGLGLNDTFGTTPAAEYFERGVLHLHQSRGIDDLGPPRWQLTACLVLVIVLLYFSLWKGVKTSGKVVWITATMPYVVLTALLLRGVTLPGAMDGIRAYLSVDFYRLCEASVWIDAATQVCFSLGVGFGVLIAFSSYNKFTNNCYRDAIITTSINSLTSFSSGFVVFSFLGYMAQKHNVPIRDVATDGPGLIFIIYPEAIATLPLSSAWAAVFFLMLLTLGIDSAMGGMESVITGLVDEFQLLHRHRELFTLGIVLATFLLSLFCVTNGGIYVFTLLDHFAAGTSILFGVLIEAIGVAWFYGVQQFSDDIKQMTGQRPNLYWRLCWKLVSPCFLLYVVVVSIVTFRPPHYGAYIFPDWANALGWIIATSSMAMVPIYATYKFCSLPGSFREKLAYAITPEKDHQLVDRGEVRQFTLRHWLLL
Procedure: (§1) Bupropion metabolites can be screened for their ability to inhibit the reuptake of the neuronal monoamines norepiniephrine (NE), dopaminc (DA), and serotonin (5-HT). […] Other assays known to those skilled in the art may also be used.
(§2) Inhibition of norepincphrinie (NE) reuptake was determined using rat hypothalamus as a tissue source and protryptiline as a reference compound. […] Inhibition of serotonin (5-HT) reuptake was determined using rat brain as a tissue source and imipramine as a reference compound.
(§3) wherein the end products observed were formed by the incorporation of [^3H]NE, [^3H]DA, and [^3H]5-HT into synaptosomes. Radioactivity was determined with a scintillation counter (Topcount, Packard) using a liquid scintillation cocktail (Microscint 0, Packard).
(§4) Raceinic bupropion and the bupropion metabolites were first tested in each assay at 10 μM in duplicate or triplicate. […] In each experiment, the respective reference compound was tested at eight concentrations in duplicate to obtain an inhibition curve in order to validate this experiment.
(§5) IC50 values and Hill coefficients (nH) were determined for the reference compounds and the test compounds (i.e., bupropion and metabolites of bupropion) by non-linear regression analysis of their inhibition curves. These parameters were obtained by Hill equation curve fitting.

[2] = target: T2, norepinephrine (NE) reuptake, rat hypothalamus (Rattus norvegicus, UniProt Q63380); test: Inhibition of norepinephrine (NE) reuptake, [3H]NE incorporation into synaptosomes; conditions: for NE reuptake Hill coefficient (nH): Hill equation curve fitting; for IC50: [3H]NE 0.2 μCi/mL, 20 min/37° C.
T2 construct: using rat hypothalamus as a tissue source; from tissue; host or cells: rat hypothalamus synaptosomes
T2 sequence (Q63380 1-617): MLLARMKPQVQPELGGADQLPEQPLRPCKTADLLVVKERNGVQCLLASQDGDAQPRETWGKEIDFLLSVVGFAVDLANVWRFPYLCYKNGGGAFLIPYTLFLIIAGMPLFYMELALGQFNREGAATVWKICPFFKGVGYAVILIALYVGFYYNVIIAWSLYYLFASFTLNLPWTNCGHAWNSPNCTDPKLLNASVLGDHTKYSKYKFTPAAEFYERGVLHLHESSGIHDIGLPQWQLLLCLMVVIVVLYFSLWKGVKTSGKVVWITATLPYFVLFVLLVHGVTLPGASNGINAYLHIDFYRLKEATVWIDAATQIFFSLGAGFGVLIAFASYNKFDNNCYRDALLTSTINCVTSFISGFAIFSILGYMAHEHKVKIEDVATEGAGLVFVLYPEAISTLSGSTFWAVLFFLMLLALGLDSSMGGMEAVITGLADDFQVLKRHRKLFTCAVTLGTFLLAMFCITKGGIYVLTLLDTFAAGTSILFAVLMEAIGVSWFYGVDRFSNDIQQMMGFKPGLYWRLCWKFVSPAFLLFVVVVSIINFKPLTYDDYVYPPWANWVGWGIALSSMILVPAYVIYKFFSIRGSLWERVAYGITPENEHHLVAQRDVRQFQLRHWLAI
Procedure: as §1, §2, §3, §4, §5

[3] = target: T3, serotonin (5-HT) reuptake, rat brain (Rattus norvegicus, UniProt P31652); test: Inhibition of serotonin (5-HT) reuptake, [3H]5-HT incorporation into synaptosomes; conditions: [3H]5-HT 0.2 μCi/mL, 15 min/37° C., first tested at 10 μM
T3 construct: using rat brain as a tissue source; from tissue; host or cells: rat brain synaptosomes
T3 sequence (P31652 whole entry): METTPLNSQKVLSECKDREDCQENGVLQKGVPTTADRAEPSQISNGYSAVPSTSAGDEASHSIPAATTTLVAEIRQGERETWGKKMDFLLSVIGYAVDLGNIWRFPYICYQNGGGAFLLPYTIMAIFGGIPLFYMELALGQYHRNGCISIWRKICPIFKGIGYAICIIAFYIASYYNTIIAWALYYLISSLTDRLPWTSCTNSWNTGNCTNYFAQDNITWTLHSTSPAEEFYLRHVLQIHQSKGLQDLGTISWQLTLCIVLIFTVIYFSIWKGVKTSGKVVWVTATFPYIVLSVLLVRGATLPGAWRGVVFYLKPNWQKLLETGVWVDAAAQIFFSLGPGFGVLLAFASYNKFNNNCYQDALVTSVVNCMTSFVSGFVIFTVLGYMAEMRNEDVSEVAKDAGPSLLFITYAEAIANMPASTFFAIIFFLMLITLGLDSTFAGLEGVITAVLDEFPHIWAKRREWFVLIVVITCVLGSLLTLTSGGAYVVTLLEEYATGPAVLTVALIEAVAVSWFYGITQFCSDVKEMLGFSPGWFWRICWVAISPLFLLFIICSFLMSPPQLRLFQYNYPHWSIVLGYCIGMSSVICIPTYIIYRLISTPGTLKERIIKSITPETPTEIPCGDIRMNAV
Procedure: as §1, §2, §3, §4, §5

SMILES | Inhibition of dopamine reuptake (in words) [1] | DA reuptake Hill coefficient (nH) [1] | IC50 [1] | IC50 ([1]; listed as (S,S)-hydroxybupropion) [nM] | NE reuptake Hill coefficient (nH) [2] | IC50 [2] | Inhibition of 5-HT reuptake (in words) [3]
C[C@@H]1NC(C)(C)CO[C@@]1(O)c1cccc(Cl)c1 [HBP(S, S)] | does not significantly inhibit dopamine reuptake | (1.0) | 1400 nM | ~1400 | (0.8) | 229 nM | does not measurably inhibit serotonin uptake
CNCCCC1c2ccccc2C=Cc2ccccc21 [protriptyline] | – | – | – | – | 2.6 and 1.4 | – | –
CC1NC(C)(C)COC1(O)c1cccc(Cl)c1 (racemic) [HBP(RS, RS), (RS,RS)-2-(3-chlorophenyl)-2-hydroxy-3,5,5-trimethyl-morpholinol] | – | – | – | – | (1.1) | 756 nM | –
CC(NC(C)(C)C)C(=O)c1cccc(Cl)c1 (racemic) [BP(±), (±)1-(3-chlorophenyl)-2-[(1,1-dimethylethyl)amino]-1-propanone, reference compound] | – | (0.9) | ~294 nM and 294 nM | – | (>3) | ~746 nM and 746 nM | –

— patent US6337328B1, “Bupropion metabolites and methods of use” (priority 1999, dated 2002)
